Source: patent US5300524A, “Spirocyclic PAF antagonists” (British Bio-Technology Limited, priority 1991, dated 1994)

Key:
[1] = biological target: T1, PAF receptor (^3 H-PAF binding to human platelet plasma membrane) (Homo sapiens, UniProt P25105); assay: Inhibition of ^3H-PAF binding to human platelet plasma membrane (isotopic labelling and filtration); details: human platelet membranes, 0.5 nM ^3H-PAF, 1 hour, 0° C.
T1 construct: from tissue; host or cells: human platelets (concentrates from a hospital blood bank), lysed by freeze-thaw, membrane fraction
T1 sequence (P25105 whole entry): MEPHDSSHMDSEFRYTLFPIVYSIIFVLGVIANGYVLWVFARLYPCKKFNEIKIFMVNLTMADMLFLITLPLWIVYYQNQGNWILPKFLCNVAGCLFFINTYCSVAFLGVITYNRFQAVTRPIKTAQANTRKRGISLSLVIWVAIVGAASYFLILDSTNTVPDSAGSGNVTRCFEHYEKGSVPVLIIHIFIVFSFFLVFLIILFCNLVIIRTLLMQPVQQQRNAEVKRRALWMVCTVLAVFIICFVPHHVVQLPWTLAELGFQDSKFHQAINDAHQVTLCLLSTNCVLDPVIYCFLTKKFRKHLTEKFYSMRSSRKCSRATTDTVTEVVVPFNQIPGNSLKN

[2] = test system: PAF-induced hypotension in rats; assay: Reversal of PAF-induced hypotension in the rat; format: in vivo; details: iv, anaesthetised male Sprague-Dawley rats, PAF 100 ng.kg^-1 min^-1 i.v. infusion, compound i.v. bolus, read-out: ED50, dose to cause a 50% reversal of the hypotensive PAF response
Protocol: Compounds of general formula I inhibit PAF-induced functions in both the cellular and tissue levels by changing the PAF binding to its specific receptor site. The ability of compounds of general formula I to inhibit the binding of PAF to its specific receptor binding site on human platelet plasma membranes was measured according to Pharmacological Example 1. The ability of compounds of general formula I to reverse the hypotension caused by an infusion of PAF in rats was measured according to Pharmacology Example 2. […] Male Sprague-Dawley rats (300-350 gms) were anaesthetised with a mixture of sodium pentobarbitone, 22.5 mg.kg^-1 and thiopental 62.5 mg.kg^-1. Through a midline incision in the neck, the trachea was cannulated and the animals breathed spontaneously. A carotid artery was cannulated for the measurement of blood pressure and this signal was used to trigger a rate meter to measure heart rate. Both jugular veins were cannulated: one for the infusion of PAF and the other for the bolus administration of test compounds.

Row | Compound | IC50 [1] [µM] | ED50 [2] [mg/kg]
1 | COc1ccc(C2CCC3(O2)C(=O)C(=Cc2cccnc2)CC3c2ccc(OC)cc2)cc1 (stereo not drawn) [Example 19, 1-Oxa-6-oxo-7-(3-pyridyl)methylene-2,9-di(4-methoxyphenyl)spiro[4,4]nonane] | 9 | 
2 | COc1ccc(C2CCC3(O2)C(=O)C(=Cc2cccc(Cl)c2)CC3c2ccc(OC)c(OC)c2)cc1OC (stereo not drawn) [Example 5, 1-Oxa-6-oxo-7-(3-chlorophenyl)methylene-2,9-di(3,4-dimethoxyphenyl)spiro[4,4]nonane] | 5 | 
3 | COc1ccc(C2CCC3(O2)C(=O)C(=CCCc2cccnc2)CC3c2ccc(OC)c(OC)c2)cc1OC (stereo not drawn) [Example 10, 1-Oxa-6-oxo-7-(3-pyridylethyl)methylene-2,9-di(3,4-dimethoxyphenyl)spiro[4,4]nonane] | 1.5 | 
4 | COc1ccc(C2CCC3(O2)C(=CC#N)CCC3c2ccc(OC)c(OC)c2)cc1OC (stereo not drawn) [Example 17, 1-Oxa-6-cyanomethylene-2,9-di(3,4-dimethoxyphenyl)spiro[4,4]nonane] | 1.5 | 
5 | COc1ccc(C2CCC3(O2)C(=O)C(=Cc2cccnc2)CC3c2ccc(OC)c(OC)c2)cc1OC (stereo not drawn) [Example 2, 1-Oxa-6-oxo-7-(3-pyridyl)methylene-2,9-di(3,4-dimethoxyphenyl)spiro[4,4]nonane] | 3 | 0.8
6 | COc1ccc(C2CCC3(O2)C(=O)CCC3c2ccc(OC)cc2)cc1 (stereo not drawn) [Example 18, 1-Oxa-6-oxo-2,9-di(4-methoxyphenyl)spiro[4,4]nonane] | 5 | 
7 | COc1ccc(C2CCC3(O2)C(=O)CCC3c2ccc(OC)c(OC)c2)cc1OC (single isomer, unassigned) [Example 1A, 1-oxa-6-oxo-2,9-(3,4-dimethoxyphenyl)spiro[4,4]nonane] | 12 | 
8 | COc1ccc(C2CCC3(O2)C(=O)C(=CCCCCc2cccnc2)CC3c2ccc(OC)c(OC)c2)cc1OC (stereo not drawn) [Example 11, 1-Oxa-6-oxo-7-(3-pyridylbutyl)methylene-2,9-di(3,4-dimethoxyphenyl)spiro[4,4]nonane] | 1 | 
